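Each compound was tested at five concentrations against cells in 96-well plates for 48 hours. The concentration for 50% growth inhibition is given as GI50.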 Calls of active or inactive are those of the source. Rule as the data show it: active = GI50 up to about 1.1 µM and inactive = higher.
Columns and labels:
Assay in all cases: NCI tumour cell line growth inhibition, 48 h
HOP-92 = tested on: HOP-92
DU-145 = tested on: DU-145
SNB-75 = tested on: SNB-75
NCI-H226 = tested on: NCI-H226
HL-60 = tested on: HL-60
786-0 = tested on: 786-0
CCRF-CEM = tested on: CCRF-CEM
A498 = tested on: A498
K562 = tested on: K562
HOP-62 = tested on: HOP-62
OVCAR-3 = tested on: OVCAR-3
MDA-MB-231 = tested on: MDA-MB-231
KM12 = tested on: KM12
UACC-62 = tested on: UACC-62
M14 = tested on: M14
OVCAR-8 = tested on: OVCAR-8
SK-MEL-5 = tested on: SK-MEL-5
T47D = tested on: T47D
UACC-257 = tested on: UACC-257
SF-295 = tested on: SF-295
SF-268 = tested on: SF-268
BT-549 = tested on: BT-549
COLO 205 = tested on: COLO 205
OVCAR-5 = tested on: OVCAR-5
CAKI-1 = tested on: CAKI-1
SNB-19 = tested on: SNB-19
TK-10 = tested on: TK-10
SR = tested on: SR
MDA-N = tested on: MDA-N
SF-539 = tested on: SF-539
MDA-MB-435 = tested on: MDA-MB-435
PC-3 = tested on: PC-3
SN12C = tested on: SN12C
LOX IMVI = tested on: LOX IMVI
IGROV-1 = tested on: IGROV-1
NCI-H460 = tested on: NCI-H460
MCF7 = tested on: MCF7
ACHN = tested on: ACHN
SK-OV-3 = tested on: SK-OV-3
A549 = tested on: A549
NCI-H23 = tested on: NCI-H23
SK-MEL-28 = tested on: SK-MEL-28
HCT-116 = tested on: HCT-116
EKVX = tested on: EKVX
OVCAR-4 = tested on: OVCAR-4
Malme-3M = tested on: Malme-3M
SK-MEL-2 = tested on: SK-MEL-2
HCT-15 = tested on: HCT-15
U-251 = tested on: U-251
RXF 393 = tested on: RXF 393
RPMI-8226 = tested on: RPMI-8226
NCI-H522 = tested on: NCI-H522
NCI/ADR-RES = tested on: NCI/ADR-RES
HCC 2998 = tested on: HCC 2998
SW-620 = tested on: SW-620
HT-29 = tested on: HT-29
MOLT-4 = tested on: MOLT-4
Hs-578T = tested on: Hs-578T
DMS-114 = tested on: DMS-114
KM-20L2 = tested on: KM-20L2
SNB-78 = tested on: SNB-78
UO-31 = tested on: UO-31

In the case of `COc1cc2c3cc1Oc1c(OC)c(OC)cc4c1C(=NCC4)Cc1ccc(cc1)Oc1cc(ccc1O)C[C@H]3N(C)CC2`, the GI50 (HOP-92) is reported as 13.6 µM (inactive), the GI50 (DU-145) is reported as 25.4 µM (inactive) and the GI50 (SNB-75) is reported as 14.1 µM (inactive). The GI50 (NCI-H226) was 22.6 µM (inactive), the GI50 (HL-60) was 14 µM (inactive) and the GI50 (786-0) was 10.4 µM (inactive). For the same compound, the GI50 (CCRF-CEM) was 30 µM (inactive), the GI50 (A498) was 22 µM (inactive) and the GI50 (K562) was 12.7 µM (inactive). For the same compound, the GI50 (HOP-62) was 22.3 µM (inactive), the GI50 (OVCAR-3) was 17.7 µM (inactive) and the GI50 (MDA-MB-231) was 12.9 µM (inactive). For the same compound, the GI50 (KM12) was 15 µM (inactive), the GI50 (UACC-62) was 16.7 µM (inactive) and the GI50 (M14) was 16.3 µM (inactive). The GI50 (OVCAR-8) was 16 µM (inactive), the GI50 (SK-MEL-5) was 12.2 µM (inactive) and the GI50 (T47D) was 21 µM (inactive). The GI50 (UACC-257) was 16 µM (inactive), the GI50 (SF-295) was 19.4 µM (inactive) and the GI50 (SF-268) was 22.6 µM (inactive). For the same compound, the GI50 (BT-549) was 12.5 µM (inactive), the GI50 (COLO 205) was 13.5 µM (inactive) and the GI50 (OVCAR-5) was 45.6 µM (inactive). The GI50 (CAKI-1) was 20.6 µM (inactive), the GI50 (SNB-19) was 23.4 µM (inactive) and the GI50 (TK-10) was 20.6 µM (inactive). The GI50 (SR) was 5.74 µM (inactive), the GI50 (MDA-N) was 16.6 µM (inactive) and the GI50 (SF-539) was 14.8 µM (inactive). The GI50 (MDA-MB-435) was 18.5 µM (inactive), the GI50 (PC-3) was 13.2 µM (inactive) and the GI50 (SN12C) was 22.9 µM (inactive). For the same compound, the GI50 (LOX IMVI) was 12.6 µM (inactive), the GI50 (IGROV-1) was 25.4 µM (inactive) and the GI50 (NCI-H460) was 15.6 µM (inactive). For the same compound, the GI50 (MCF7) was 25.8 µM (inactive), the GI50 (ACHN) was 23.1 µM (inactive) and the GI50 (SK-OV-3) was 48.6 µM (inactive). The GI50 (A549) was 37.5 µM (inactive), the GI50 (NCI-H23) was 19.1 µM (inactive) and the GI50 (SK-MEL-28) was 16.7 µM (inactive). The GI50 (HCT-116) was 12 µM (inactive), the GI50 (EKVX) was 23.2 µM (inactive) and the GI50 (OVCAR-4) was 16.1 µM (inactive). For the same compound, the GI50 (Malme-3M) was 0.601 µM (active), the GI50 (SK-MEL-2) was 16.7 µM (inactive) and the GI50 (HCT-15) was 12.2 µM. For the same compound, the GI50 (U-251) was 17.4 µM (inactive), the GI50 (RXF 393) was 10 µM (inactive) and the GI50 (RPMI-8226) was 16.3 µM (inactive). For the same compound, the GI50 (NCI-H522) was 10.7 µM (inactive), the GI50 (NCI/ADR-RES) was 13.6 µM (inactive) and the GI50 (HCC 2998) was 13.4 µM (inactive). For the same compound, the GI50 (SW-620) was 17.3 µM (inactive), the GI50 (HT-29) was 10.8 µM (inactive) and the GI50 (MOLT-4) was 11.9 µM (inactive). For the same compound, the GI50 (Hs-578T) was 17.6 µM (inactive).

`COC1CCCCN1C(=O)c1ccccc1` (stereo not given) was tested, and the GI50 (HOP-92) was > 25.3 µM (inactive), the GI50 (DMS-114) was > 25.3 µM (inactive) and the GI50 (SNB-75) was > 25.3 µM (inactive). The GI50 (NCI-H226) was > 25.3 µM (inactive), the GI50 (HL-60) was > 25.3 µM (inactive) and the GI50 (786-0) was > 25.3 µM (inactive). For the same compound, the GI50 (KM-20L2) was > 25.3 µM (inactive), the GI50 (K562) was > 25.3 µM (inactive) and the GI50 (OVCAR-3) was > 25.3 µM (inactive). For the same compound, the GI50 (KM12) was > 25.3 µM (inactive), the GI50 (UACC-62) was > 25.3 µM (inactive) and the GI50 (SNB-78) was > 25.3 µM (inactive). The GI50 (M14) was > 25.3 µM (inactive), the GI50 (SK-MEL-5) was > 25.3 µM (inactive) and the GI50 (SF-268) was > 25.3 µM (inactive). For the same compound, the GI50 (OVCAR-5) was > 25.3 µM (inactive), the GI50 (CAKI-1) was > 25.3 µM (inactive) and the GI50 (SNB-19) was > 25.3 µM (inactive). For the same compound, the GI50 (TK-10) was > 25.3 µM (inactive), the GI50 (SR) was > 25.3 µM (inactive) and the GI50 (SN12C) was > 25.3 µM (inactive). The GI50 (LOX IMVI) was > 25.3 µM (inactive), the GI50 (IGROV-1) was > 25.3 µM (inactive) and the GI50 (UO-31) was > 25.3 µM (inactive). For the same compound, the GI50 (ACHN) was > 25.3 µM (inactive), the GI50 (SK-OV-3) was > 25.3 µM (inactive) and the GI50 (A549) was > 25.3 µM (inactive). For the same compound, the GI50 (NCI-H23) was > 25.3 µM (inactive), the GI50 (SK-MEL-28) was > 25.3 µM (inactive) and the GI50 (HCT-116) was > 25.3 µM (inactive). The GI50 (OVCAR-4) was > 25.3 µM (inactive), the GI50 (Malme-3M) was > 25.3 µM (inactive) and the GI50 (SK-MEL-2) was > 25.3 µM (inactive). The GI50 (HCT-15) was greater than 25.3 µM, the GI50 (U-251) was > 25.3 µM (inactive) and the GI50 (RXF 393) was > 25.3 µM (inactive). For the same compound, the GI50 (HCC 2998) was > 25.3 µM (inactive), the GI50 (SW-620) was > 25.3 µM (inactive) and the GI50 (MOLT-4) was > 25.3 µM (inactive).

`COC(=O)c1cc(C)ccc1CC(Cc1cccc(C)c1)C(=O)OC` (stereo not given) was tested, and the GI50 (HOP-92) was 25.8 µM (inactive), the GI50 (DU-145) was 92.9 µM (inactive) and the GI50 (SNB-75) was 39.5 µM (inactive). For the same compound, the GI50 (NCI-H226) was > 100 µM (inactive), the GI50 (HL-60) was 34.7 µM (inactive) and the GI50 (786-0) was > 100 µM (inactive). For the same compound, the GI50 (CCRF-CEM) was 46.2 µM (inactive), the GI50 (A498) was > 100 µM (inactive) and the GI50 (K562) was 45.7 µM (inactive). The GI50 (HOP-62) was > 100 µM (inactive), the GI50 (OVCAR-3) was > 100 µM (inactive) and the GI50 (MDA-MB-231) was > 100 µM (inactive). For the same compound, the GI50 (KM12) was > 100 µM (inactive), the GI50 (M14) was > 100 µM (inactive) and the GI50 (OVCAR-8) was > 100 µM (inactive). The GI50 (SK-MEL-5) was 34.8 µM (inactive), the GI50 (T47D) was > 100 µM (inactive) and the GI50 (UACC-257) was > 100 µM (inactive). For the same compound, the GI50 (SF-295) was > 100 µM (inactive), the GI50 (SF-268) was 13.6 µM (inactive) and the GI50 (BT-549) was > 100 µM (inactive). For the same compound, the GI50 (COLO 205) was > 100 µM (inactive), the GI50 (OVCAR-5) was 17.3 µM (inactive) and the GI50 (CAKI-1) was > 100 µM (inactive). The GI50 (SNB-19) was > 100 µM (inactive), the GI50 (TK-10) was > 100 µM (inactive) and the GI50 (SR) was 38.4 µM (inactive). For the same compound, the GI50 (MDA-N) was > 100 µM (inactive), the GI50 (SF-539) was > 100 µM (inactive) and the GI50 (MDA-MB-435) was > 100 µM (inactive). The GI50 (PC-3) was > 100 µM (inactive), the GI50 (SN12C) was > 100 µM (inactive) and the GI50 (LOX IMVI) was > 100 µM (inactive). For the same compound, the GI50 (IGROV-1) was > 100 µM (inactive), the GI50 (NCI-H460) was > 100 µM (inactive) and the GI50 (MCF7) was > 100 µM (inactive). For the same compound, the GI50 (UO-31) was > 100 µM (inactive), the GI50 (ACHN) was > 100 µM (inactive) and the GI50 (SK-OV-3) was 4.06 µM (inactive). The GI50 (A549) was > 100 µM (inactive), the GI50 (NCI-H23) was 38.5 µM (inactive) and the GI50 (SK-MEL-28) was > 100 µM (inactive). For the same compound, the GI50 (HCT-116) was 80.7 µM (inactive), the GI50 (EKVX) was 59.2 µM (inactive) and the GI50 (OVCAR-4) was > 100 µM (inactive). The GI50 (Malme-3M) was > 100 µM (inactive), the GI50 (SK-MEL-2) was 47.3 µM (inactive) and the GI50 (HCT-15) was greater than 100 µM. The GI50 (U-251) was > 100 µM (inactive), the GI50 (RXF 393) was 29.2 µM (inactive) and the GI50 (RPMI-8226) was 29.6 µM (inactive). For the same compound, the GI50 (NCI-H522) was 74.6 µM (inactive), the GI50 (NCI/ADR-RES) was 95.9 µM (inactive) and the GI50 (HCC 2998) was > 100 µM (inactive). The GI50 (SW-620) was > 100 µM (inactive), the GI50 (HT-29) was 50.6 µM (inactive) and the GI50 (MOLT-4) was 23.4 µM (inactive). The GI50 (Hs-578T) was > 100 µM (inactive).
